On the set-up of series [1]: species or system humans. Conditions: in vivo. As to the method: A panel of 10 assessors were used to evaluate sensory differences between cellobiose containing (2 levels; 75% and 100% sucrose substitution) and standard chocolate.
The maximum amount of cellobiose consumed during one 3 hour sensory session was set at 20 g and 8 g respectively (100% cellobiose sample contained 49.5 g cellobiose/100 g, 75% cellobiose sample contained 34.7 g/100 g and 60% inulin sample contained 29.7 g inulin/100 g).
For each attribute, panelists were presented with all samples (˜3.5 g sample size) allowing comparative assessment. Panelists first determined rank order and then assigned ratings using separate line scales for each sample/attribute.
All samples were presented in 2 oz plastic pots labelled with random 3 digit codes. Panelists were provided with unsalted cracker (Rakusen, U.K.), green apple slices and mineral water (Evian, France) for palate cleansing. Attributes were assessed in blocks of 2 followed by 15 mins rest breaks.
(§1) A number of gastro-intestinal symptoms were reported by the panelists in the 24 hours following the sensory sessions, the most common being flatulence (10/10 on at least 1 occasion) and bowel sounds (8/10 on at least 1 occasion). Some degree of […] discomfort was reported by 7/10 panelists on 1 or more occasions and 5 out of the 10 panelists suffered diarrhea following 1 or more sessions. A previous tolerability study carried out using cellobiose (H-09-2011) examined GI effects when cellobiose was delivered in a water based solution and used only male subjects aged between 18-35 yrs. The number and severity of symptoms seen in this study was not expected given the previous tolerability results where cellobiose was consumed as a drink (10, 20, 30 or 50 g of cellobiose was dissolved in 200 ml of hot water and allowed to cool to room temperature overnight). […] With the consumption of 30 g, 4 people (31%) experienced short duration abdominal pain (ranging in severity from 1 to 3 out of 5), 2 people (15%) reported mild flatulence (severity 1 out of 5) and one person reported this at a severity of 3 out of 5. […] Six subjects (46%) reported flatulence (range 1-4 out of 5), and 4 experienced abdominal pain (severity between 1-2 out of 5). Three quarters of subjects were happy to take part in future studies involving the ingestion of cellobiose, even at the highest dose.

Series [2] is described as follows: Previous tolerability study (H-09-2011), cellobiose consumed as a drink in water based solution. Format: in vivo, humans. As to the method:
as §1

For series [3] the following is noted: administered to humans as a drink; cited from earlier work.
[4] abbreviates: 30 g cellobiose, severity 1 out of 5.

`O=C[C@H](O)[C@@H](O)[C@H](O[C@@H]1O[C@H](CO)[C@@H](O)[C@H](O)[C@H]1O)[C@H](O)CO` [cellobiose]: in series [1] (human, 24 h), the “panelists reporting bowel sounds” value was 8/10, the panelists reporting flatulence is on record as 10/10, the “panelists reporting some degree of abominable discomfort” value is listed as 7/10 and the “panelists who suffered diarrhea” value is given as 5 out of the 10 panelists. Further, in series [1], the “Symptoms (y/n)” value is given as “Y”; the undesirable side effects result was “stomach cramps, nausea, diarrhea and loss of appetite”. Besides, the abdominal symptoms reported entry in series [2] (10 g cellobiose in 200 ml water) was “mild or no abdominal symptoms”. The abdominal symptoms reported result in series [2] (20 g cellobiose in 200 ml water) is “mild or no abdominal symptoms”. For the same molecule, in series [2] (30 g cellobiose), the “people who experienced short duration abdominal pain” value amounted to 4 people, the “persons who reported flatulence at a severity of 3 out of 5” value is given as “one”, the “severity of mild flatulence” value is on record as 1 out of 5 and the “share of people with short duration abdominal pain” value is recorded as 31%. Moreover, in series [2] (setting [4]), the “people who reported mild flatulence” value was 2 people and the “share of people with mild flatulence” value is on record as 15%. Besides, in series [2] (50 g cellobiose), the abdominal pain severity is on record as 1-2 out of 5, the flatulence severity range is 1-4 out of 5, the “persons who reported diarrhea in the first 24 h” value is reported as 1 and the “persons with a single episode of diarrhea 2 h after consuming” value was 1 person. Besides, in series [2] (50 g cellobiose), the “share of subjects who reported flatulence” value came to 46%, the “subjects who experienced abdominal pain” value was determined as 4 and the “subjects who reported flatulence” value was “Six”. Further, in series [3], the unpleasant side effects result was “not observed to such a great degree”.
